The source of these data is patent US20240158446A1, “CYCLIC COMPOUND HAVING SELECTIVE INHIBITORY ACTION ON KRAS OVER HRAS AND NRAS” (CHUGAI SEIYAKU KABUSHIKI KAISHA, priority 2021, published 2024).

Test [1] addresses GDP-bound KRAS wild-type protein (Homo sapiens, UniProt P01116). Nature of the test: Binding to KRAS by surface plasmon resonance (SPR), Single Cycle Kinetics. To be noted: GDP-bound KRAS wild-type protein, read-out: KRAS KD.
For test [2], the target named is GDP-bound NRAS wild-type protein (Homo sapiens, UniProt P01111). Nature of the test: Binding to NRAS by surface plasmon resonance (SPR), Single Cycle Kinetics. To be noted: for NRAS/KRAS (ratio of KD value with respect to GDP-bound NRAS wild-type protein to KD value with respect to KRAS): SPR KD ratio NRAS/KRAS, class symbols; for NRAS/KRAS (ratio of KD value for NRAS to KD value for KRAS): SPR, GDP-bound NRAS wild-type protein vs GDP-bound KRAS wild-type protein.
Sequence of GDP-bound NRAS wild-type protein (P01111 whole entry): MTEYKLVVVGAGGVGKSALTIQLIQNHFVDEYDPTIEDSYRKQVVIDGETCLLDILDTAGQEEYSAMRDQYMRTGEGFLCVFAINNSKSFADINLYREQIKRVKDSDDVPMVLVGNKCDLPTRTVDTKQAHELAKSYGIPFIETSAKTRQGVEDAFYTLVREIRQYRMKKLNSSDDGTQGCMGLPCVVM

Test [3] concerns the target GDP-bound HRAS wild-type protein (Homo sapiens, UniProt P01112). Kind of test: Binding to HRAS by surface plasmon resonance (SPR), Single Cycle Kinetics. To be noted: for HRAS/KRAS (ratio of KD value with respect to GDP-bound HRAS wild-type protein to KD value with respect to KRAS): SPR KD ratio HRAS/KRAS, class symbols; for HRAS/KRAS (ratio of KD value for HRAS to KD value for KRAS): SPR, GDP-bound HRAS wild-type protein vs GDP-bound KRAS wild-type protein.

In test [4] the test system is human lung cancer strain NCI-H441.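 Further: cell proliferation inhibition after four days measured by CellTiter-Glo.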
Where [5] appears, read: SPR Single Cycle Kinetics, 1:1 binding model.
The mark [6] stands for this setting: SPR, Single Cycle Kinetics, 1:1 binding model.

Molecules are shown by their SMILES. Like-named read-outs stand apart in the source and are kept apart here.

Sequence of GDP-bound KRAS wild-type protein (P01116 whole entry): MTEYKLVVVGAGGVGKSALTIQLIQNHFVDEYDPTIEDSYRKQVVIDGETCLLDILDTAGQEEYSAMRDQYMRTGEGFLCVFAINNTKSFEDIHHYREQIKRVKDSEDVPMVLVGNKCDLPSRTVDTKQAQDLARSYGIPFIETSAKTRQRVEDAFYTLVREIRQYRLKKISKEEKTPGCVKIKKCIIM
Sequence of GDP-bound HRAS wild-type protein (P01112 whole entry): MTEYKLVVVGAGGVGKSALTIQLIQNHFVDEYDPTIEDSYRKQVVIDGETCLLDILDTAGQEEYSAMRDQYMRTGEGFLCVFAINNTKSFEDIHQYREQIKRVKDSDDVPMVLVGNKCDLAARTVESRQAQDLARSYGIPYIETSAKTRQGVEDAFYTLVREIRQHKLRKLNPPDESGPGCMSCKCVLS

Take `CC[C@H](C)[C@@H]1NC(=O)[C@H](COC)N(C)C(=O)C[C@@H](C(=O)N2CCCCC2)N(C)C(=O)[C@H](C2CCCC2)N(C)C(=O)C2(CC(C)(C)C2)NC(=O)[C@@H]2C[C@@H](OC3CCCC3)CN2C(=O)[C@H](CCc2cc(F)c(C(F)(F)F)c(F)c2)NC(=O)CN(C)C(=O)[C@H](Cc2ccc(C(F)(F)F)cc2)N2CC/C=C\C[C@@H](C2=O)N(C)C(=O)CN(C)C1=O` [PP2665]: the Kd in test [1] (setting [5]) was 0.56 nM. Also, the “NRAS/KRAS (ratio of KD value with respect to GDP-bound NRAS wild-type protein to KD value with respect to KRAS)” value in test [2] is “A (a compound having 10 or more and less than 20 is denoted as A)”. Moreover, the “HRAS/KRAS (ratio of KD value with respect to GDP-bound HRAS wild-type protein to KD value with respect to KRAS)” value in test [3] was “A (a compound having 10 or more and less than 20 is denoted as A)”. In addition, the IC50 in test [4] worked out at 23.4 nM.

Turning to `CCC[C@H]1C(=O)N[C@@H]([C@@H](C)CC)C(=O)N(C2CC2)CC(=O)N(C)[C@H]2C/C=C\CCN(C2=O)[C@@H](CC2CCC(F)(F)CC2)C(=O)N(C)CC(=O)N[C@@H](CCc2cc(F)c(C(F)(F)F)c(F)c2)C(=O)N2C[C@H](OCC)C[C@H]2C(=O)NC2(CC(C)(C)C2)C(=O)N(C)[C@@H](C2CCCC2)C(=O)N(C)[C@H](C(=O)N(C)C)CC(=O)N1C` [PP2566], the Kd in test [1] (setting [5]) was determined as 0.57 nM. Also, the “NRAS/KRAS (ratio of KD value with respect to GDP-bound NRAS wild-type protein to KD value with respect to KRAS)” value in test [2] was “A (a compound having 10 or more and less than 20 is denoted as A)”. Also, the “HRAS/KRAS (ratio of KD value with respect to GDP-bound HRAS wild-type protein to KD value with respect to KRAS)” value in test [3] is “B (a compound having 3 or more and less than 10 is denoted as B)”. In addition, the half-maximal inhibitory concentration (IC50) in test [4] came to 17.6 nM.

For the compound `CCO[C@@H]1C[C@H]2C(=O)NC3(CCCC3)C(=O)N(C)[C@@H](C3CCCC3)C(=O)N(C)[C@H](C(=O)N(C)C)CC(=O)N(C)[C@@H](C)C(=O)N[C@@H]([C@@H](C)CC)C(=O)N(C)CC(=O)N(C)[C@H]3C/C=C\CCN(C3=O)[C@@H](CC3CCC(F)(F)CC3)C(=O)N(C)CC(=O)N[C@@H](CCc3cc(F)c(C(F)(F)F)c(F)c3)C(=O)N2C1` [PP1456, (2S,8S,12R,14S,20S,23S,27S,30S,36S,38Z)-20-cyclopentyl-2-[(4,4-difluorocyclohexyl)methyl]-8-[2-[3,5-difluoro-4-(trifluoromethyl)phenyl]ethyl]-12-ethoxy-N,N,4,19,22,26,27,32,35-nonamethyl-30-[(1S)-1-methylpropyl]-3,6,9,15,18,21,25,28,31,34,42-undecaoxo-spiro[1,4,7,10,16,19,22,26,29,32,35-undecazatricyclo[34.5.1.0^10,14]dotetracont-38-ene-17,1′-cyclopentane]-23-carboxamide], the Kd in test [1] (setting [6]) amounted to 0.12 nM. In test [2] (KD ratio class), the “NRAS/KRAS (ratio of KD value for NRAS to KD value for KRAS)” value is “A (a compound having 10 or more and less than 20 is denoted as A)”. The “HRAS/KRAS (ratio of KD value for HRAS to KD value for KRAS)” value in test [3] (KD ratio class) is “A (a compound having 10 or more and less than 20 is denoted as A)”. This compound returned an IC50 in test [4] of 90 nM.

Take `C#CCN1CC(=O)N(C)[C@H]2C/C=C\CCN(C2=O)[C@@H](Cc2ccc(C)cc2)C(=O)N(C)CC(=O)N[C@@H](CCc2cc(F)c(C(F)(F)F)c(F)c2)C(=O)N2C[C@H](OCC)C[C@H]2C(=O)NC2(CCC2)C(=O)N(C)[C@@H](C2CCCC2)C(=O)N(C)[C@H](C(=O)N(C)C)CC(=O)N(C)[C@@H](CCC)C(=O)N[C@@H](CC(C)C)C1=O` [PP2536]: the Kd in test [1] (setting [5]) was found to be 2.4 nM. For the same compound, the “NRAS/KRAS (ratio of KD value with respect to GDP-bound NRAS wild-type protein to KD value with respect to KRAS)” value in test [2] is “A (a compound having 10 or more and less than 20 is denoted as A)”. Also, the “HRAS/KRAS (ratio of KD value with respect to GDP-bound HRAS wild-type protein to KD value with respect to KRAS)” value in test [3] was “B (a compound having 3 or more and less than 10 is denoted as B)”. The compound also returned an IC50 in test [4] of 152 nM.

With `CCCO[C@H](C)[C@@H]1NC(=O)[C@H](CC(C)C)N(C)C(=O)C[C@@H](C(=O)N(C)CC)N(C)C(=O)[C@H](C2CCCC2)N(C)C(=O)C2(CC(C)(C)C2)NC(=O)[C@@H]2C[C@H](C)CN2C(=O)[C@H](CCc2ccc(C(F)(F)F)c(OC)c2)NC(=O)CN(C)C(=O)[C@H](Cc2ccc(C)cc2)N2CC/C=C\C[C@@H](C2=O)N(C)C(=O)CN(C)C1=O` [PP2416], the Kd in test [1] (SPR, Single Cycle Kinetics) is 0.29 nM. Further, the “NRAS/KRAS (ratio of KD value for NRAS to KD value for KRAS)” value in test [2] is “A (a compound having 10 or more and less than 20 is denoted as A)”. In test [3], the “HRAS/KRAS (ratio of KD value for HRAS to KD value for KRAS)” value was “B (a compound having 3 or more and less than 10 is denoted as B)”. Moreover, the IC50 in test [4] was determined as 33.1 nM.

For the compound `CC[C@H](C)[C@@H]1NC(=O)[C@H](COC)N(C)C(=O)C[C@@H](C(=O)N(C)C)N(C)C(=O)[C@H](C2CCCCC2)N(C)C(=O)C2(CC(C)(C)C2)NC(=O)[C@@H]2C[C@@H](OC(C)C)CN2C(=O)[C@H](CCc2ccc(Cl)c(Cl)c2)NC(=O)CN(C)C(=O)[C@H](Cc2ccc(C(F)(F)F)cc2)N2CC/C=C\C[C@@H](C2=O)N(C)C(=O)CN(C)C1=O` [PP2662], the Kd in test [1] (setting [5]) came to 0.29 nM. Besides, the “NRAS/KRAS (ratio of KD value with respect to GDP-bound NRAS wild-type protein to KD value with respect to KRAS)” value in test [2] is recorded as “AA (a compound having 20 or more is denoted as AA)”. Further, the “HRAS/KRAS (ratio of KD value with respect to GDP-bound HRAS wild-type protein to KD value with respect to KRAS)” value in test [3] was “A (a compound having 10 or more and less than 20 is denoted as A)”. The compound also showed a concentration for half-maximal inhibition (IC50) in test [4] of 13.1 nM.

On to `CCO[C@@H]1C[C@H]2C(=O)NC3(CCC3)C(=O)N(C)[C@@H](C3CCCC3)C(=O)N(C)[C@H](C(=O)N(C)C)CC(=O)N(C)[C@@H](CC(C)(C)C)C(=O)N[C@@H]([C@@H](C)CC)C(=O)N(C)CC(=O)N(C)[C@H]3C/C=C\CCN(C3=O)[C@@H](CC3CCCCC3)C(=O)N(C)CC(=O)N[C@@H](CCc3cc(F)c(C(F)(F)F)c(F)c3)C(=O)N2C1` [PP1474], for which, in test [1] (setting [6]), the Kd came out at 0.23 nM. Further, the “NRAS/KRAS (ratio of KD value for NRAS to KD value for KRAS)” value in test [2] (KD ratio class) is “A (a compound having 10 or more and less than 20 is denoted as A)”. Also, the “HRAS/KRAS (ratio of KD value for HRAS to KD value for KRAS)” value in test [3] (KD ratio class) was “A (a compound having 10 or more and less than 20 is denoted as A)”. This compound also gave a 50% inhibitory concentration (IC50) in test [4] of 48.2 nM.

As for `CC[C@H](C)[C@@H]1NC(=O)[C@H](CC2CC2)N(C)C(=O)C[C@@H](C(=O)N(C)C)N(C)C(=O)[C@H](C2CCCC2)N(C)C(=O)C2(CCCC2)NC(=O)[C@@H]2CCCN2C(=O)[C@H](CCc2cc(F)c(C(F)(F)F)c(F)c2)NC(=O)CN(C)C(=O)[C@H](Cc2ccc(C(F)(F)F)cc2)N2C[C@H](C)[C@H](C)C[C@@H](C2=O)N(C)C(=O)CN(C)C1=O` [PP1368], in test [1] (setting [6]), the Kd was determined as 0.061 nM. Besides, in test [2] (KD ratio class), the “NRAS/KRAS (ratio of KD value for NRAS to KD value for KRAS)” value was “A (a compound having 10 or more and less than 20 is denoted as A)”. Moreover, the “HRAS/KRAS (ratio of KD value for HRAS to KD value for KRAS)” value in test [3] (KD ratio class) was “B (a compound having 3 or more and less than 10 is denoted as B)”. This compound also yielded an IC50 in test [4] of 2.9 nM.

Consider `CCC(CC)[C@H]1C(=O)N(C)[C@H](C(=O)N(C)C)CC(=O)N(C)[C@@H](COC)C(=O)N[C@@H]([C@@H](C)CC)C(=O)N(C2CC2)CC(=O)N(C)[C@H]2C/C=C\CCN(C2=O)[C@@H](Cc2ccc(C(F)F)cc2)C(=O)N(C)CC(=O)N[C@@H](CCc2cc(F)c(C(F)(F)F)c(F)c2)C(=O)N2C[C@H](OC3CCCC3)C[C@H]2C(=O)NC2(CC(C)(C)C2)C(=O)N1C` [PP2633], for which the equilibrium dissociation constant (Kd) in test [1] (setting [5]) amounted to 0.64 nM. Moreover, in test [2], the “NRAS/KRAS (ratio of KD value with respect to GDP-bound NRAS wild-type protein to KD value with respect to KRAS)” value was “AA (a compound having 20 or more is denoted as AA)”. The “HRAS/KRAS (ratio of KD value with respect to GDP-bound HRAS wild-type protein to KD value with respect to KRAS)” value in test [3] was “A (a compound having 10 or more and less than 20 is denoted as A)”. For the same compound, the 50% inhibitory concentration (IC50) in test [4] worked out at 29 nM.

As to `CCO[C@@H]1C[C@H]2C(=O)NC3(CCC3)C(=O)N(C)[C@@H](C(CC)CC)C(=O)N(C)[C@H](C(=O)N(C)C)CC(=O)N(C)[C@@H](CC(C)C)C(=O)N[C@@H]([C@@H](C)CC)C(=O)N(C)CC(=O)N(C)[C@H]3C/C=C\CCN(C3=O)[C@@H](Cc3ccc(C(F)(F)F)cc3)C(=O)N(C)CC(=O)N[C@@H](CCc3cc(F)c(Cl)c(F)c3)C(=O)N2C1` [PP1232], the Kd in test [1] (setting [6]) amounted to 0.67 nM. Moreover, the “NRAS/KRAS (ratio of KD value for NRAS to KD value for KRAS)” value in test [2] (KD ratio class) is “A (a compound having 10 or more and less than 20 is denoted as A)”. Also, in test [3] (KD ratio class), the “HRAS/KRAS (ratio of KD value for HRAS to KD value for KRAS)” value was “A (a compound having 10 or more and less than 20 is denoted as A)”. Besides, the 50% inhibitory concentration (IC50) in test [4] is 59.7 nM.

`CCC[C@H]1C(=O)N[C@@H]([C@@H](C)CC)C(=O)N(C2CC2)CC(=O)N(C)[C@H]2C/C=C\CCN(C2=O)[C@@H](Cc2ccc(C)cc2)C(=O)N(C)CC(=O)N[C@@H](CCc2ccc(Cl)c(Cl)c2)C(=O)N2C[C@H](OCC)C[C@H]2C(=O)NC2(CC(C)(C)C2)C(=O)N(C)[C@@H](C2CCCC2)C(=O)N(C)[C@H](C(=O)N(C)C)CC(=O)N1C` [PP2559]: the Kd in test [1] (setting [5]) is 0.91 nM. Besides, in test [2], the “NRAS/KRAS (ratio of KD value with respect to GDP-bound NRAS wild-type protein to KD value with respect to KRAS)” value was “A (a compound having 10 or more and less than 20 is denoted as A)”. For the same compound, in test [3], the “HRAS/KRAS (ratio of KD value with respect to GDP-bound HRAS wild-type protein to KD value with respect to KRAS)” value is “A (a compound having 10 or more and less than 20 is denoted as A)”. The same compound returned an IC50 in test [4] of 103 nM.
